Assay results taken from patent US20030017146A1, “Arginine decomposing enzyme therapeutic composition” (priority 1996, published 2003).
“Also recorded” adds a separate entry of the source.

Columns and labels:
[1] = system: HeLa Cells (human cervical carcinoma); experiment: Arginine deprivation of HeLa cells in vitro, survival and recovery (cloning studies); assay type: cell-based
Experimental: Our in vitro work (D. N. Wheatly: Personal communication) with HeLa Cells (human cervical carcinoma) and early passages of human fibroblasts has established limits of survival and recovery after different items of arginine deprivation. […] By 96 hours of deprivation all HeLa cells were dead. In contrast, healthy fibroblasts could be recovered after even 10 days of deprivation.
Further work established that arginine concentration of 1 micro mole per liter had essentially the same effects as total deprivation. At 40 mircomolar, HeLa cycle was already disturbed, and killing of the cells started below 10 mircomolar. Thus our target “killing zone” for HeLa cells is 1 to 10 micromolar concentration of arginine during three to four days of deprivation.

[2] = system: thrombocytes; experiment: Iloprost infusion against loss of thrombocytes limiting duration of dialysis sessions; assay type: in vivo, dogs; conditions: dog, infusion at 0.5 to 1.0 ng/kg/hr, last two sessions
Experimental: No systemic problems were seen that would indicate serious threats caused by the lack of arginine. As discussed earlier, loss of thrombocytes was the main factor limiting duration of the sessions. In the last two sessions on the last dog we used yet another infusion pump to deliver iloprost (ILOMEDIN), Schering), a stable analog of prostacyclin (at 0.5 to 1.0 ng/kg/hr). […] By deployment of the approaches described earlier (oxygen supply) this problem will certainly be resolved.

[3] = cited from earlier work
[4] = Continuous hemodialysis removal of arginine with insulin/glucose clamp in healthy dogs; assay type: in vivo; conditions: dog plasma, direct infusion of insulin and glucose with dialysis, blood flow 300 to 400 ml/min, single filter
Excerpt: We have thus devised an approach combining our technique of extracorporeal blood treatment for removal of arginine (or any number of selected amino acids) with a pharmacological intervention employing an insulin/glucose clamp. As mentioned earlier, insulin is both an inhibitor of muscle protein breakdown (of both lysosomal and proteasomal pathways) and a promoter of protein synthesis. Since the net release of amino acids depends on both of these cellular activities, insulin is an excellent choice.
The upper two curves (dashed lines) are from the two sessions without insulin. Not shown are the concentrations of other amino acids, which could be maintained close to their pre-set levels (determined by their concentrations in the dialyzing fluid).
A detailed description of the experiment performed on one (the first) of the last three dogs is as follows. […]
Concentrations of amino acids in the blood plasma were measured on an amino acid analyzer (Pharmacia, Biochrom 20) using standard procedures of sample preparation. Using a short column and a truncated buffer program, several amino acids (phenylalanine, histidine, 3-methyl-histidine, tryptophan, lysine, and arginine) could be measured in about 30 minutes of analyzer running time. […]

[5] = pH 7.4; cited from earlier work
[6] = cited from earlier work; remark: listed apart in the source

## N=C(N)NCCC[C@H](N)C(=O)O [arginine]
[1]
  arginine concentration at which the cell cycle was already disturbed: 40 mircomolar
  arginine concentration below which killing of the cells started: below 10 mircomolar
  arginine concentration with essentially the same effects as total deprivation: 1 micro mole per liter

## CC#CCC(C)[C@H](O)/C=C/[C@@H]1[C@H]2C/C(=C/CCCC(=O)O)C[C@H]2C[C@H]1O (stereo partly shown) [iloprost]
[2]
  prolongation of the sessions: slight prolongation only

## Cc1ncc(COP(=O)(O)O)c(C=O)c1O [pyridoxal 5′-phosphate]
[3]; in circulation
  half life: about 15 minutes

## Cc1ncc(CO)c(CO)c1O.Cl [pyrodoxine hydrochloride, reference compound]
[3]; human plasma, oral supplement of 100 mg/day, normal about 60 nM
  plasma concentration of pyridoxal 5'-phosphate reached: 450 nM

## insulin
[4]
  arginine level reached: 1.5 µM

B1: dADC: inducible (biodegradative) arginine decarboxylase of E. coli, molecular weight 850,000, induced by low pH (protein, UniProt P28629 1-755, looked up)
Biodegradative arginine …: MKVLIVESEFLHQDTWVGNAVERLADALSQQNVTVIKSTSFDDGFAILSSNEAIDCLMFSYQMEHPDEHQNVRQLIGKLHERQQNVPVFLLGDREKALAAMDRDLLELVDEFAWILEDTADFIAGRAVAAMTRYRQQLLPPLFSALMKYSDIHEYSWAAPGHQGGVGFTKTPAGRFYHDYYGENLFRTDMGIERTSLGSLLDHTGAFGESEKYAARVFGADRSWSVVVGTSGSNRTIMQACMTDNDVVVVDRNCHKSIEQGLMLTGAKPVYMVPSRNRYGIIGPIYPQEMQPETLQKKISESPLTKDKAGQKPSYCVVTNCTYDGVCYNAKEAQDLLEKTSDRLHFDEAWYGYARFNPIYADHYAMRGEPGDHNGPTVFATHSTHKLLNALSQASYIHVREGRGAINFSRFNQAYMMHATTSPLYAICASNDVAVSMMDGNSGLSLTQEVIDEAVDFRQAMARLYKEFTADGSWFFKPWNKEVVTDPQTGKTYDFADAPTKLLTTVQDCWVMHPGESWHGFKDIPDNWSMLDPIKVSILAPGMGEDGELEETGVPAALVTAWLGRHGIVPTRTTDFQIMFLFSMGVTRGKWGTLVNTLCSFKRHYDANTPLAQVMPELVEQYPDTYANMGIHDLGDTMFAWLKENNPGARLNEAYSGLPVAEVTPREAYNAIVDNNVELVSIENLPGRIAANSVIPYPPGIPMLLSGENFGDKNSPQVSYLRSLQSWDHHFPGFEHETEGTEIIDGIYHVMCVKA
[5]
  catalytic activity at physiological pH: vanishes; also recorded: near total loss of activity

B2: bADC: biosynthetic arginine decarboxylase of E. coli, tetramer of 296,000 molecular weight requiring pyridoxal 5'-phosphate and magnesium ion (protein, UniProt P21170 1-658, looked up)
Biosynthetic arginine …: MSDDMSMGLPSSAGEHGVLRSMQEVAMSSQEASKMLRTYNIAWWGNNYYDVNELGHISVCPDPDVPEARVDLAQLVKTREAQGQRLPALFCFPQILQHRLRSINAAFKRARESYGYNGDYFLVYPIKVNQHRRVIESLIHSGEPLGLEAGSKAELMAVLAHAGMTRSVIVCNGYKDREYIRLALIGEKMGHKVYLVIEKMSEIAIVLDEAERLNVVPRLGVRARLASQGSGKWQSSGGEKSKFGLAATQVLQLVETLREAGRLDSLQLLHFHLGSQMANIRDIATGVRESARFYVELHKLGVNIQCFDVGGGLGVDYEGTRSQSDCSVNYGLNEYANNIIWAIGDACEENGLPHPTVITESGRAVTAHHTVLVSNIIGVERNEYTVPTAPAEDAPRALQSMWETWQEMHEPGTRRSLREWLHDSQMDLHDIHIGYSSGIFSLQERAWAEQLYLSMCHEVQKQLDPQNRAHRPIIDELQERMADKMYVNFSLFQSMPDAWGIDQLFPVLPLEGLDQVPERRAVLLDITCDSDGAIDHYIDGDGIATTMPMPEYDPENPPMLGFFMVGAYQEILGNMHNLFGDTEAVDVFVFPDGSVEVELSDEGDTVADMLQYVQLDPKTLLTQFRDQVKKTDLDAELQQQFLEEFEAGLYGYTYLEDE
[6]; absolute requirement for magnesium ion
  pH of optimal activity: ~8
[6]; cofactor
  Michaelis constant for pyridoxal 5'-phosphate: 0.6 µM
[6]; enzyme purified 1,000 fold
  specific activity: 16.4 units/mg
[6]; sigmoidal magnesium saturation curve
  magnesium saturation S0.5: 1.3 mM
[6]; substrate
  Michaelis constant for arginine: 30 µM
